Experimental data published in patent US10071983B2, “Activatable fluorogenic compounds and uses thereof as near infrared probes” (Ramot at Tel-Aviv University Ltd., priority 2011, dated 2018).

How the values were obtained:
[1] = NIR fluorescence emission spectrum of dye compounds; format: physicochemical; conditions: for λmax: Table 1, λmax (fluorescence emission)
From the text: (§1) Compound 1 (which generates the dye compound QCy7 deprotonation) was obtained as an orange crystalline powder. FIGS. 4A and 4B present the UV-Vis spectrum of Compound 1 (FIG. 4A), compared to that of the acetate Compound 3 (FIG. 4B). […] The obtained large stokes shift between the excitation and the emission wavelengths of about 150 nm is a desirable feature for fluorescence probes, which assists in increasing the signal-to-noise ratio.
(§2) FIG. 5 presents the data obtained for fluorescence intensity vs. wavelength of standard sample (Cresyl violet; FIG. 5A), and test sample (QCy7; FIG. 5B), at the indicated concentrations. The measurements were performed in a 1 cm cuvette using Fluoromax-3 fluorometer; at an excitation wavelength of 560 nm. Cresyl violet was dissolved in methanol and Compound 1 in PBS 7.4 (just generating QCy7).
(§3) FIG. 8 presents the data obtained for fluorescence intensity vs. wavelength of standard sample (QCy7; FIG. 8A), and test sample (Sulfo-QCy7, generated from Compound 9; FIG. 8B), at the indicated concentrations. The measurements were performed at a 96-wells plate reader using Fluoromax-3 fluorometer; at an excitation wavelength of 560 nm. Both samples were dissolved in PBS 7.4.

[2] = as above; format: physicochemical; conditions: PBS 7.4 [50 μM], excitation 570 nm, cutting filter >690 nm
[3] = In vivo imaging of exogenous hydrogen peroxide (premixed probe injected); parameters: species or system mice
Description: Initially, as a simple control experiment, a premixed solution of probe 4 with hydrogen peroxide was injected into the peritoneal cavity, and the mice were imaged in a CRI Maestro™ non-invasive fluorescence imaging system.
Next, it was tested whether probe Compound 4 can be used to differentiate in vivo various concentrations of hydrogen peroxide in order to test the system's sensitivity. Therefore, two different concentrations of hydrogen peroxide were premixed with probe Compound 4; immediately injected intramuscularly, into the leg, and then imaged by the CRI Maestro™ non-invasive fluorescence imaging system.

[4] = NIR fluorescence assay of probe Compound 4 with hydrogen peroxide
Description: In order to evaluate the NIR fluorescence obtained by probe Compound 4 upon reaction with hydrogen peroxide under physiological conditions, the probe was incubated in PBS 7.4 at 37° C., in the presence and absence of hydrogen peroxide at varying concentrations, and the emitted NIR fluorescence was measured by a spectrophotometer (M2 of Molecular Device). The results, presented in FIG. 20A, indicate full conversion of probe Compound 4 to sulfo-QCy7 within 30 minutes (red plot).
The sensitivity of probe Compound 4 towards detection of hydrogen peroxide was then evaluated.

[5] = tested on: endogenously produced hydrogen peroxide; assay: In vivo imaging of endogenous hydrogen peroxide, LPS-induced acute inflammation; parameters: species or system Balb/c mice
Description: To induce acute inflammation in Balb/c mice, 1 ml (0.1 mg/ml) of LPS (Lipopolysaccharides from Escherichia coli 055:B5, Sigma) was injected into the peritoneal cavity of Balb/c mice as previously described [Lee, D. et al. Nat. Mater. 6, 765-769 (2007)]. Six hours later, additional i.p. injections of 400 μl of 1 mM of the tested probe compound or PBS (as control) were performed. Second control group of mice was injected i.p. with 1 ml of PBS followed by additional i.p. injection of 400 μl PBS. Fifteen minutes later, mice were anesthetized using ketamine (100 mg/kg) and xylazine (12 mg/kg), treated with a depilatory cream (Veet®), and placed inside CRI Maestro non-invasive fluorescence imaging system. Multispectral image-cubes were acquired through 600-800 nm spectral range in 10 nm steps using excitation (595 nm) and emission (635 nm longpass) filter set. Mice autofluorescence and undesired background signals were eliminated by spectral analysis and linear unmixing algorithm. Activated probe-fluorescence unmixed specific signal was quantified as total signal of photons/exposure time (sec). Data is expressed as mean±s.d.
The, the use of probe Compound 4 for visualizing endogenously-produced hydrogen peroxide was tested. […] Mater. 6, 765-9 (2007)]. Mice were injected intraperitoneally (i.p.) with LPS (1 ml of 0.1 mg/ml), followed 6 hours later by additional i.p. injection of probe Compound 4 (400 μl of 1 mM) and were thereafter imaged by the CRI Maestro™ non-invasive fluorescence imaging system.

[6] = UV-Vis absorption spectrum of dye compounds; format: physicochemical; conditions: for λmax: Table 1, first λmax column (absorption peaks)
From the text: as §1
Compound 14 is composed from a phenol latent donor and two different acceptors; a picolinium moiety and an indolium moiety (see, Scheme 3). Deprotonation of the phenolic dye leads to formation of new donor-acceptor pair fluorochrome.
Compound 18 is composed of a phenol latent donor and two identical acceptors based on a picolinium moiety (see, Scheme 4). Deprotonation of the phenolic form leads to formation of new donor-acceptor pair fluorochrome.
Compound 25 is composed of a phenol latent donor and three acceptors; two picolinium moieties and one indolium moiety (see, Scheme 5). Deprotonation of the phenolic compound leads to formation of three resonance donor-two-acceptor structures of new fluorochrome.
The chemical 2D structures and spectroscopic data obtained for exemplary dye molecules according to embodiments of the present invention are presented in Table 1.

[7] = pKa measurement by UV-Vis absorbance as a function of pH; format: physicochemical; conditions: buffers at the indicated pH; 50 μM in buffers, phenol form
Description: The pKa values of exemplary compounds according to some embodiments of the present invention, Compounds 14, 18 and 25, was measured by monitoring their UV-Vis absorbance as a function of the environment pH. The tested compounds, at a concentration of 50 μM were dissolved in the respective buffers at the indicated pH and their absorbance was measured.

[8] = Aqueous stability in PBS 7.4 at 37° C., NIR emission over 72 hours; format: physicochemical; conditions: PBS 7.4 [25 μM]
Description: The aqueous stability of the cyanine-like dye compound presented herein was tested and compared to that of the cyanine molecule Cy7.
All tested compounds were incubated in PBS 7.4 [25 μM], at 37° C., and their NIR fluorescent emission was monitored over 72 hours. FIG. 15 presents the normalized intensity of NIR fluorescent emission of dyes generated from Compound 9 (green circles; Sulfo-QCy7), Compound 14 (blue diamonds), Compound 18 (red squares), Compound 25 (orange triangles) and Compound 1 (blank navy squares; QCy7) as a function of incubation time.

[9] = Fluorescence quantum yield calculation against a reference dye; format: physicochemical; conditions: PBS 7.4
Description: Cresyl-violet-perchlorate (as presented hereinbelow) was chosen as a reference compound for the determination of QCy7 quantum yield.
as §2
Conversion to the absolute quantum yield is achieved through the following equation: ΦX=ΦST(GradX/GradST)(η^2X/η^2ST) where the subscripts ST and X denote standard and test respectively, Φ is the fluorescence quantum yield, Grad the gradient from the plot of integrated fluorescence intensity vs. absorbance (see, FIG. 6), and η the refractive index of the solvents. ΦCresyl-violet=0.55 [Stefan et al. ([…]) J. Phys. Chem. 86, 1738-1742].
QCy7 was chosen as a reference compound for the determination of Sulfo-QCy7 quantum yield.
as §3
The absolute quantum yield was calculated as described hereinabove and found to be: […]

| SMILES | λmax [1] | quantum yield [9] [%] | also measured |
| --- | --- | --- | --- |
| CC(=O)Oc1ccc(/C=C/C2=[N+](C)c3ccccc3C2(C)C)cc1/C=C/C1=[N+](C)c2ccccc2C1(C)C [Compound 3] |  |  | fluorescence emission in the NIR region of masked derivative ([1]; PBS 7.4 [100 μM], λex=560 nm): did not show any fluorescence emission in the NIR region |
| CC1(C)C(/C=C/c2ccc(OCc3ccc(B(O)O)cc3)c(/C=C/C3=[N+](CCCS(=O)(=O)[O-])c4ccccc4C3(C)C)c2)=[N+](CCCS(=O)(=O)[O-])c2ccccc21 [Compound 4] |  |  | appearance under NIR imaging camera [2]: clearly transparent; NIR fluorescence in vivo, probe premixed with hydrogen peroxide ([3]; injected into the peritoneal cavity): can generate NIR fluorescence in vivo image; NIR fluorescence in vivo, probe only ([3]; injected into the peritoneal cavity, no hydrogen peroxide): did not show any detectable NIR fluorescence; dependence of NIR fluorescence intensity on hydrogen peroxide concentration in vivo ([3]; premixed, injected intramuscularly into the leg): dependent on the hydrogen peroxide initial concentration; NIR fluorescence in the absence of hydrogen peroxide ([4]; PBS 7.4, 37° C.): No NIR fluorescence is observed; time to full conversion of probe to sulfo-QCy7 ([4]; probe [50 μM], hydrogen peroxide [50 μM], PBS 7.4, 37° C.): ≤ 30 min; detectable hydrogen peroxide concentration ([4]; probe [100 μM]): below 1 μM; signal-to-noise ratio of NIR fluorescence intensity vs control group ([5]; LPS i.p., probe 400 μl of 1 mM i.p. 6 hours later): about 10 fold; NIR fluorescence signal, LPS-treated vs non-LPS treated mice ([5]; LPS i.p., probe i.p. 6 hours later): significantly greater intensity of NIR fluorescence signal; NIR fluorescence in mice treated only with probe ([5]; no LPS): slight NIR fluorescence |
| C[n+]1ccc(/C=C/c2ccc(O)c(/C=C/c3cc[n+](C)cc3)c2)cc1.[I-].[I-] [Compound 10] | 720 nm |  |  |
| C[n+]1ccc(/C=C/c2ccc(O)c(/C=C/c3cc[n+](C)cc3C#N)c2)c(C#N)c1.[I-].[I-] [Compound 11] | 730 nm |  |  |
| C[n+]1ccc(/C=C/c2ccc(O)c(/C=C/c3cc[n+](C)cc3[N+](=O)[O-])c2)c([N+](=O)[O-])c1.[I-].[I-] [Compound 12] | No fluores- cence |  | λmax [6]: 350 nm |
| C[n+]1ccc(/C=C/c2ccc(O)c(/C=C/c3cc[n+](C)c4ccccc34)c2)c2ccccc21.[I-].[I-] [Compound 13] | No fluores- cence |  | λmax [6]: 550 nm |
| C[n+]1ccc(/C=C/c2cc(/C=C/C3=[N+](CCCS(=O)(=O)[O-])c4ccccc4C3(C)C)ccc2O)cc1.[I-] [Compound 14] | 650 nm | 17 | pKa [7]: 2.9; UV-Vis absorption peak maximum ([6]; PBS 7.4): 550 nm; aqueous stability compared with Cy7 [8]: increase aqueous stability than that of Cy7; loss of NIR fluorescence during incubation period [8]: did not show any loss of NIR fluorescence; fluorescence emission peak in the NIR region ([1]; PBS 7.4): 680 nm |
| CC(C)(C)c1cc(/C=C/c2ccc(O)c(/C=C/c3cc(C(C)(C)C)[o+]c(C(C)(C)C)c3)c2)cc(C(C)(C)C)[o+]1 [Compound 15] | No fluores- cence |  |  |
| C[n+]1ccc(/C=C/c2cc(/C=C/c3cc(C(C)(C)C)[o+]c(C(C)(C)C)c3)ccc2O)cc1.I [Compound 16] | 730 nm |  | λmax [6]: 580 nm |
| C[n+]1ccc(/C=C/c2ccc(O)c(/C=C/c3cc[n+](C)cc3S(=O)(=O)[O-])c2)c(S(=O)(=O)[O-])c1 [Compound 17] | 730 nm | 2.6 |  |

Now from value to compound, other results behind:

| λmax [1] | quantum yield [9] [%] | SMILES | also measured |
| --- | --- | --- | --- |
| 660 nm |  | CCOC(=O)c1cc(/C=C/c2cc[n+](C)cc2)c(O)c(/C=C/c2cc[n+](C)cc2)c1 [Compound 19] |  |
| No fluores- cence |  | CCOC(=O)c1cc(/C=C/c2cc[n+](C)c3ccccc23)c(O)c(/C=C/c2cc[n+](C)c3ccccc23)c1 [Compound 20] |  |
| 730 nm |  | CCOC(=O)c1cc(/C=C/c2cc[n+](C)cc2C#N)c(O)c(/C=C/c2cc[n+](C)cc2C#N)c1 [Compound 21] |  |
| 650 nm | 7 | C[n+]1ccc(/C=C/c2cc(C=O)cc(/C=C/c3cc[n+](C)cc3)c2O)cc1 [Compound 22] |  |
| 600 nm |  | C[n+]1ccc(/C=C/c2cc([N+](=O)[O-])cc(/C=C/c3cc[n+](C)cc3)c2O)cc1 [Compound 23] |  |
| 720 nm | 2.9 | C[n+]1ccc(/C=C/c2cc(Br)cc(/C=C/c3cc[n+](C)cc3)c2O)cc1 [Compound 27] |  |
| 700 nm | 2 | C[n+]1ccc(/C=C/c2cc(C(=O)O)cc(/C=C/c3cc[n+](C)cc3)c2O)cc1 [Compound 29] |  |
| 710 nm | 16 | CC1(C)C(/C=C/c2cc(/C=C/C3=[N+](CCCS(=O)(=O)[O-])c4ccccc4C3(C)C)c(O)c(/C=C/C3=[N+](CCCS(=O)(=O)[O-])c4ccccc4C3(C)C)c2)=[N+](CCCS(=O)(=O)[O-])c2ccccc21 [Compound 30] |  |
| 720 nm |  | C[n+]1ccc(/C=C/c2cc(/C=C/c3cc[n+](C)cc3)c(O)c(/C=C/c3cc[n+](C)cc3)c2)cc1.I.I [Compound 31] |  |
